The target in this assay is T1, human and rat GPR-14 (UniProt Q9UKP6).
T1 sequence (Q9UKP6 1-389): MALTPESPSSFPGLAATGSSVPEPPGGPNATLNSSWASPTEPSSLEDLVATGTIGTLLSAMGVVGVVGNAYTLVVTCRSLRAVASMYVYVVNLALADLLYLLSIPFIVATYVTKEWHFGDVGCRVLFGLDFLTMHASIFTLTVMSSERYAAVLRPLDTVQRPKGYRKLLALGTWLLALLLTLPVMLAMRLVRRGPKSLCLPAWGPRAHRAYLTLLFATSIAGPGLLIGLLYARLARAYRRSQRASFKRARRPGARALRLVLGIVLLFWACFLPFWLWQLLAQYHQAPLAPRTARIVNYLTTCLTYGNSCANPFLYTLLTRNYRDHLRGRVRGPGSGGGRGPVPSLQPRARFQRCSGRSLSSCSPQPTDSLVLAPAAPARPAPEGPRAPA
As to the kind of experiment: Radioligand binding, [125I] h-U-II, HEK-293 cell membranes. The conditions noted are these: radioligand binding assay; HEK-293 cell membranes with stable cloned GPR-14; 200 pM [125I] h-U-II. As to the method: HEK-293 cell membranes containing stable cloned human and rat GPR-14 (20 ug/assay) were incubated with 200 pM [125I] h-U-II (200 Ci/mmol^−1 in the presence of increasing concentrations of test compounds in DMSO (0.1 nM to 10 uM), in a final incubation volume of 200 ul (20 mM Tris-HCl, 5 mM MgCl2). Incubation was done for 30 minutes at room temperature followed by filtration GF/B filters with Brandel cell harvester. ^125I labeled U-II binding was quantitated by gamma counting. Nonspecific binding was defined by ^125I U-II binding in the presence of 100 nM of unlabeled human U-II. Analysis of the data was performed by nonlinear least square fitting.

As usually defined, the Ki is a measure of affinity in units of concentration, obtained from inhibition or displacement. A low value points to a stronger hold on the target. The compound `COc1cc(NCCCNC(=O)C(c2ccccc2)c2ccccc2)nc2ccccc12` [Example 29, N-[3-(4-Methoxy-quinolin-2-ylamino)-propyl]-2,2-diphenyl-acetamide] showed a Ki of 90 nM.

Values taken from patent US6818655B2, “Urotensin-II receptor antagonists” (SmithKline Beecham Corporation, priority 2001, dated 2004).
